Measurements from patent US10669272B2, “Substituted naphthyridinone compounds useful as T cell activators” (BRISTOL-MYERS SQUIBB COMPANY, priority 2018, dated 2020).
pEC50, pIC50: −log10 of the molar value. Like-named read-outs stand apart in the source and are kept apart here.

Legend:
human DGKα = biological target: T1, human DGKα (Homo sapiens, UniProt P23743); experiment: DGKα LIPGLO assay (extruded liposome substrate), in vitro DGK inhibition; format: biochemical; details: liposome (LIPGLO) assay; read-out: DGKa LIPGLO IC50
T1 construct: TVMV protease cleavage site (C); Hexa-His (C); made in house; host or cells: Sf9 insect cells (baculovirus, Bac-to-Bac)

human DGKζ = biological target: T2, human DGKζ (Homo sapiens, UniProt Q13574); experiment: DGKζ LIPGLO assay (extruded liposome substrate), in vitro DGK inhibition; format: biochemical; details: liposome (LIPGLO) assay; read-out: DGKz LIPGLO IC50
T2 construct: TVMV protease cleavage site (C); Hexa-His (C); made in house; host or cells: Sf9 insect cells (baculovirus, Bac-to-Bac)

naïve human CD8 T cells = experiment: Human CD8 T cells IFN-γ assay; format: cell-based; details: normalized to 3 μM reference compound with anti-CD3 plus anti-CD28 as 100% activation, read-out: HuCD8 INFG Normalized EC50;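 further: Naïve human CD8 T cells stimulated with plate-bound anti-CD3 and soluble anti-CD28, IFN-γ in supernatant quantified by AlphaLISA and converted to pg/mL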
Human venous whole blood = experiment: Human whole blood IFN-γ assay; format: cell-based; details: human whole blood, normalized to 3 μM reference compound with anti-CD3 plus anti-CD28 as 100% activation, read-out: INFg Whole Blood Normalized Agonist EC50;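 further: blood from healthy donors exposed to compound for 1 h before stimulation with anti-CD3 and anti-CD28 at 1 µg/mL each, IFN-γ quantified in supernatant by AlphaLISA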

T2 sequence (Q13574 with tags, fused parts or gaps isoform Q13574-4): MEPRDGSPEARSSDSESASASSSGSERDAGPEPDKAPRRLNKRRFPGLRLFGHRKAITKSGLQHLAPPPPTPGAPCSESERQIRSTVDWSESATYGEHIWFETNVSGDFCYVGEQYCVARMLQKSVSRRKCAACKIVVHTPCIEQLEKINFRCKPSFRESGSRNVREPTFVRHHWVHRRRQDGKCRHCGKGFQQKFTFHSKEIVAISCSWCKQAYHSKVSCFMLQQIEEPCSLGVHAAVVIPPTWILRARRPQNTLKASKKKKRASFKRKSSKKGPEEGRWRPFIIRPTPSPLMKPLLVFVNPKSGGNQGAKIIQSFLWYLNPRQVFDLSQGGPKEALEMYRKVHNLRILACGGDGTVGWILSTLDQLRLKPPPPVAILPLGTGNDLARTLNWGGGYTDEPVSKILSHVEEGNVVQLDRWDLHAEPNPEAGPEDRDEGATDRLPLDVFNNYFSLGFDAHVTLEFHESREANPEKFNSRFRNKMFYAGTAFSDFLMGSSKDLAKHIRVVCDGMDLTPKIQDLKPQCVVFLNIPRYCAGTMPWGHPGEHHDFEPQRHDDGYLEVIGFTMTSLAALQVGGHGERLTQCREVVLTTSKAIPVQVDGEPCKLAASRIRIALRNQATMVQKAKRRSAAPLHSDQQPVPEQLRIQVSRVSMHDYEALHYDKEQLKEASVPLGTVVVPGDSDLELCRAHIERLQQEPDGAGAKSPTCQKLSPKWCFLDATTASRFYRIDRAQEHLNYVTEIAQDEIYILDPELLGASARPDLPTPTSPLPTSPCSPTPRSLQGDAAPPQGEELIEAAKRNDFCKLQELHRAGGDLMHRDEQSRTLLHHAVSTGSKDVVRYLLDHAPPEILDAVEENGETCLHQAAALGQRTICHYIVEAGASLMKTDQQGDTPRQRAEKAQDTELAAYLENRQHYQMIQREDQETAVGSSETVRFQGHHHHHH
T1 sequence (P23743 with tags, fused parts or gaps): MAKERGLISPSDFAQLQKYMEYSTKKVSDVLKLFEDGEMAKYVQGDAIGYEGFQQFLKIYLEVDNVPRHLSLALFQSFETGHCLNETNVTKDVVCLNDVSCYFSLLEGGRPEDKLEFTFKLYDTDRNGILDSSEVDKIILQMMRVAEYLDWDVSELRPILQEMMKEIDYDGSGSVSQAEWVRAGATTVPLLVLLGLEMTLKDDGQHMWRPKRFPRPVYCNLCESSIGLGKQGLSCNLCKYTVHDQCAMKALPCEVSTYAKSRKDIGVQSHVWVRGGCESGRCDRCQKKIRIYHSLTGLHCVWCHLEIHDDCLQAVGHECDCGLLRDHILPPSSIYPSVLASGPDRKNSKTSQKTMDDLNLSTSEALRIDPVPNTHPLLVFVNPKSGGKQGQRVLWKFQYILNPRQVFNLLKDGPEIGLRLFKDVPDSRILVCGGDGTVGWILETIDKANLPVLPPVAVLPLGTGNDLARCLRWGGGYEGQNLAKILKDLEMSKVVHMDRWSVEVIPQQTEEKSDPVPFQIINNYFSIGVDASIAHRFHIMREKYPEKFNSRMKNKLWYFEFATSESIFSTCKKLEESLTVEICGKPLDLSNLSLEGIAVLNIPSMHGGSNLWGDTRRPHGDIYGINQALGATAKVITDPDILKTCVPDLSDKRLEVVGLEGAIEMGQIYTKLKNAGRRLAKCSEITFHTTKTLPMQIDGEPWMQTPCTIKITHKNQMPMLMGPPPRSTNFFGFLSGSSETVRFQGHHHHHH

pIC50 (human DGKα)	pIC50 (human DGKζ)	Structure (SMILES)	pEC50 (naïve human CD8 T cells; Homo sapiens, T-cell, 20 h)	pEC50 (naïve human CD8 T cells)	pEC50 (Human venous whole blood)	pEC50 (Human venous whole blood; Homo sapiens, 24 h)
3.62	5.46	Cn1c(=O)cc(N2CCN(C(c3ccc(F)cc3)c3ccc(F)cc3)C(C(=O)NC3CC3)C2)c2nc(C#N)ccc21 (racemic) [Example 46, 1-(bis(4-fluorophenyl)methyl)-4-(6-cyano-1-methyl-2-oxo-1,2-dihydro-1,5-naphthyridin-4-yl)-N-cyclopropylpiperazine-2-carboxamide]	5.33			
4.08	4.85	Cn1c(=O)cc(N2CCN(C(c3ccc(F)cc3)c3ccc(F)cc3)CC2CO)c2nc(C#N)ccc21 (racemic) [Example 146, 8-(4-(bis(4-fluorophenyl)methyl)-2-(hydroxymethyl)piperazin-1-yl)-5-methyl-6-oxo-5,6-dihydro-1,5-naphthyridine-2-carbonitrile]	6.18			
4.85	4.34	Cn1c(=O)cc(N2CCN(C(c3ccc(F)cc3)c3ccc(F)cc3)C(C(N)=O)C2)c2nc(C#N)ccc21 (single isomer, unassigned) [Example 41, 1-(bis(4-fluorophenyl)methyl)-4-(6-cyano-1-methyl-2-oxo-1,2-dihydro-1,5-naphthyridin-4-yl)piperazine-2-carboxamide]		5.82		
3.62	4.70	Cn1c(=O)cc(N2CCN(C(c3ccc(F)cc3)c3ccc(F)cc3)C(C(=O)NC3CC3)C2)c2nc(C#N)ccc21 (single isomer, unassigned) [Example 48, 1-(bis(4-fluorophenyl)methyl)-4-(6-cyano-1-methyl-2-oxo-1,2-dihydro-1,5-naphthyridin-4-yl)-N-cyclopropylpiperazine-2-carboxamide]		5.42		
3.85	4.03	Cn1c(=O)c(C#N)c(N2CCN(C(c3ccc(F)cc3)c3ccc(F)cc3)C(C(=O)O)C2)c2nc(C#N)ccc21 (single isomer, unassigned) [Example 53, 1-(bis(4-fluorophenyl)methyl)-4-(3,6-dicyano-1-methyl-2-oxo-1,2-dihydro-1,5-naphthyridin-4-yl)piperazine-2-carboxylic acid]	5.00			
4.28	3.85	Cn1c(=O)c(C#N)c(N2CCN(C(c3ccc(F)cc3)c3ccc(F)cc3)C(C(N)=O)C2)c2nc(C#N)ccc21 (single isomer, unassigned) [Example 57, 1-(bis (4-fluorophenyl)methyl)-4-(3,6-dicyano-1-methyl-2-oxo-1,2-dihydro-1,5-naphthyridin-4-yl)piperazine-2-carboxamide]	5.22			
3.62	3.77	Cn1c(=O)c(C#N)c(N2CCN(C(c3ccc(F)cc3)c3ccc(F)cc3)C(C(=O)NC3CC3)C2)c2nc(C#N)ccc21 (single isomer, unassigned) [Example 61, 1-(bis(4-fluorophenyl)methyl)-N-cyclopropyl-4-(3,6-dicyano-1-methyl-2-oxo-1,2-dihydro-1,5-naphthyridin-4-yl)piperazine-2-carboxamide]		5.00		
3.62	4.82	CC(C)OC(=O)C1CN(c2cc(=O)n(C)c3ccc(C#N)nc23)CCN1C(c1ccc(F)cc1)c1ccc(F)cc1 (single isomer, unassigned) [Example 62, Isopropyl 1-(bis(4-fluorophenyl)methyl)-4-(6-cyano-1-methyl-2-oxo-1,2-dihydro-1,5-naphthyridin-4-yl)piperazine-2-carboxylate]		5.74		
4.32	6.04	COC(=O)C1CN(c2cc(=O)n(C)c3ccc(C#N)nc23)CCN1C(c1ccc(F)cc1)c1ccc(F)cc1OC (single isomer, unassigned) [Example 67, Methyl 4-(6-cyano-1-methyl-2-oxo-1,2-dihydro-1,5-naphthyridin-4-yl)-1-((4-fluoro-2-methoxyphenyl)(4-fluorophenyl)methyl)piperazine-2-carboxylate]		7.52		
5.96	7.35	CCOC[C@@H]1CN(c2cc(=O)n(C)c3ccc(C#N)nc23)[C@@H](C)CN1C(c1ccc(F)cc1)c1ccc(C(F)(F)F)cn1 (stereo partly drawn) [Example 1403]			5.72	
6.05	7.30	CCOC[C@@H]1CN(c2cc(=O)n(C)c3ccc(C#N)nc23)[C@@H](C)CN1C(c1ccc(F)cc1)c1ccc(C(F)(F)F)cn1 (stereo partly drawn) [Example 1404]			6.05	
5.15	6.46	CC[C@H]1CN(Cc2ccc3c(c2)OC(F)(F)O3)[C@H](COC)CN1c1cc(=O)n(C)c2ccc(C#N)nc12 [Example 1407]				5.36
4.66	7.01	C[C@H]1CN(C(c2ccc(F)cc2)c2ccc(F)cc2)[C@H](CNS(C)(=O)=O)CN1c1cc(=O)n(C)c2ccc(C#N)nc12 [Example 1410, N-(((2S,5S)-1-(bis(4-fluorophenyl)methyl)-4-(6-cyano-1-methyl-2-oxo-1,2-dihydro-1,5-naphthyridin-4-yl)-5-methylpiperazin-2-yl)methyl)methanesulfonamide]				5.74
4.59	4.19	CC(c1ccc(OC(F)(F)F)cc1)N1C[C@H](C)N(c2cc(=O)n(C)c3ccc(C#N)nc23)C[C@H]1CN1CCN(C)CC1 (stereo partly drawn) [Example 1417]				4.96
4.17	4.21	CC(c1ccc(OC(F)(F)F)cc1)N1C[C@H](C)N(c2cc(=O)n(C)c3ccc(C#N)nc23)C[C@H]1CN1CCN(C)CC1 (stereo partly drawn) [Example 1418]			4.70	
5.68	6.33	COC[C@H]1CN(C(c2ccc(F)cc2)c2ccc(F)cc2)[C@H](C)CN1c1cc(=O)n(C)c2ccc(C#N)nc12 [Example 1421, 8-((2R,5R)-4-(bis(4-fluorophenyl)methyl)-2-(methoxymethyl)-5-methylpiperazin-1-yl)-5-methyl-6-oxo-5,6-dihydro-1,5-naphthyridine-2-carbonitrile]				5.82
6.54	5.38	C[C@@H]1CN(c2cc(=O)n(C)c3ccc(C#N)nc23)[C@@H](C)CN1Cc1cc(C#N)cs1 [Example 1422, 8-((2S,5R)-4-((4-cyanothiophen-2-yl)methyl)-2,5-dimethylpiperazin-1-yl)-5-methyl-6-oxo-5,6-dihydro-1,5-naphthyridine-2-carbonitrile]				5.16
4.30	4.36	C[C@@H]1CN(c2cc(=O)n(C)c3ccc(C#N)nc23)[C@@H](C)CN1Cc1nnnn1C1CC1 [Example 1423]				4.70
5.43	4.85	Cc1cc(CN2C[C@H](C)N(c3cc(=O)n(C)c4ccc(C#N)nc34)C[C@H]2C)no1 [Example 1424]				4.70
5.23	5.31	C[C@@H]1CN(c2cc(=O)n(C)c3ccc(C#N)nc23)[C@@H](C)CN1Cc1cc(-c2ccccc2)no1 [Example 1425]				4.70
4.48	5.40	Cc1noc(C)c1CN1C[C@H](C)N(c2cc(=O)n(C)c3ccc(C#N)nc23)C[C@H]1C [Example 1426]				4.70
4.68	5.28	C[C@@H]1CN(c2cc(=O)n(C)c3ccc(C#N)nc23)[C@@H](C)CN1Cc1cc(-c2ccccc2C#N)no1 [Example 1427]				4.70
4.47	4.28	C[C@@H]1CN(c2cc(=O)n(C)c3ccc(C#N)nc23)[C@@H](C)CN1Cc1cnoc1 [Example 1428]				4.70
4.23	4.92	Cc1oncc1CN1C[C@H](C)N(c2cc(=O)n(C)c3ccc(C#N)nc23)C[C@H]1C [Example 1431]				4.89
5.68	5.11	CC(C)c1nc(CN2C[C@H](C)N(c3cc(=O)n(C)c4ccc(C#N)nc34)C[C@H]2C)no1 [Example 1432]				4.70
5.60	5.55	C[C@@H]1CN(c2cc(=O)n(C)c3ccc(C#N)nc23)[C@@H](C)CN1Cc1noc2ccccc12 [Example 1433]				4.89
5.68	6.02	C[C@@H]1CN(c2cc(=O)n(C)c3ccc(C#N)nc23)[C@@H](C)CN1Cc1coc(-c2cccs2)n1 [Example 1434]				4.68
6.70	6.19	CCC(c1ccc(OCC2CC2)cc1)N1C[C@H](C)N(c2cc(=O)n(C)c3ccc(C#N)nc23)C[C@H]1C (stereo partly drawn) [Example 1439, 8-((2S,5R)-4-(1-(4-(cyclopropylmethoxy)phenyl)propyl)-2,5-dimethylpiperazin-1-yl)-5-methyl-6-oxo-5,6-dihydro-1,5-naphthyridine-2-carbonitrile]				6.60
5.80	4.35	C[C@@H]1CN(c2cc(=O)n(C)c3ccc(C#N)nc23)[C@@H](C)CN1C1(c2ccc(F)cc2)CC1 [Example 1454, 8-((2S,5R)-4-(1-(4-fluorophenyl)cyclopropyl)-2,5-dimethylpiperazin-1-yl)-5-methyl-6-oxo-5,6-dihydro-1,5-naphthyridine-2-carbonitrile]				5.00
